Here are results for 2 compounds from patent publication US12162855B2, “Tetrahydroquinolino derivatives for the treatment of metastatic and chemoresistant cancers” (THE TRUSTEES OF PRINCETON UNIVERSITY, priority 2018, dated 2024).

Test [1] has as its target T1, ALDH1a3 (Homo sapiens, UniProt P47895).
T1 construct: lentiviral vectors containing either the vector backbone or full-length human Aldh1a3; expressed in transfected cells; host or cells: SUM159-M1a (A1) and SUM159 (A7) breast cancer cells, lentiviral pLex vector, puromycin selection
T1 sequence (P47895 1-512): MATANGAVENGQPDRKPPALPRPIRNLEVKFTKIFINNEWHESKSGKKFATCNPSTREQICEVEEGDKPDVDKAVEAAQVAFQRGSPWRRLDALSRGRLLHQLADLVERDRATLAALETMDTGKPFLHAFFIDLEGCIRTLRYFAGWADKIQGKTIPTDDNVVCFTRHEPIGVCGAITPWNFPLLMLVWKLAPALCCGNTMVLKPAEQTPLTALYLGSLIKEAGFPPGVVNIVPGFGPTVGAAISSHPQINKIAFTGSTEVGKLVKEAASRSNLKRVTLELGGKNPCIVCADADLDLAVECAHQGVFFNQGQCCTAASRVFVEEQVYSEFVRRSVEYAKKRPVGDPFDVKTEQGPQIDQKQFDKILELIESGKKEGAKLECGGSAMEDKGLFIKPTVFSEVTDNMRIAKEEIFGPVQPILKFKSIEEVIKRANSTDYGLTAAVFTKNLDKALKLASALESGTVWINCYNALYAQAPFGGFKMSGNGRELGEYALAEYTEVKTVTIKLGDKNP
The test is described as follows: ALDEFLUOR assay in 293T cells transiently transfected with human Aldh1a3. It is filed as cell-based. To be noted: 293T cells transfected with human Aldh1a3. As to the method:
The coding sequences of Aldh1a1, Aldh1a2, Aldh1a3 and Aldh3a1 were cloned from cDNA made from pooled human reference RNA samples. Cloned sequences flanked by Age1 and Xho1 restriction sites were inserted into the pLex lentiviral plasmid. Clones were sequenced and compared against NCBI expressed sequence tags (ESTs) for accuracy. Viral production of each enzyme was performed by transfection into the 293T packaging cell line using PEI along with PsPax2 and VSVG packaging vectors. Viruses were collected and filtered at 0.45 μm, then cells were transduced using polybrene (8 μg/mL) for 12 hours, followed by culture with 1 μg/mL puromycin for the duration of experiments. All viral transduction and selection was performed on a cell population-wide basis.
(§1) Cells were counted, centrifuged and resuspended at 1,000,000 cells/mL in ALDEFLUOR™ buffer (Stemcell Technologies). ALDEFLUOR™ substrate (Stemcell Technologies, 1:200) and test compound or 1 mM DEAB were added to cell suspension and incubated at 37° C. for 45 minutes with vortexing every 15 minutes. Cells were centrifuged and resuspended in ALDEFLUOR™ buffer with DAPI at 5 μg/mL. Samples were analyzed with the BD LSR2 flow cytometry platform. Gating was performed using DEAB as a negative control.

Test [2] deals with T2, ALDH1a3 (Homo sapiens, UniProt P47895).
T2 construct: endogenous in cells; host or cells: panel of cancer cell lines (e.g. Sum159-M1a, MDA-MB-468 and others of b212)
T2 sequence (P47895 2-512): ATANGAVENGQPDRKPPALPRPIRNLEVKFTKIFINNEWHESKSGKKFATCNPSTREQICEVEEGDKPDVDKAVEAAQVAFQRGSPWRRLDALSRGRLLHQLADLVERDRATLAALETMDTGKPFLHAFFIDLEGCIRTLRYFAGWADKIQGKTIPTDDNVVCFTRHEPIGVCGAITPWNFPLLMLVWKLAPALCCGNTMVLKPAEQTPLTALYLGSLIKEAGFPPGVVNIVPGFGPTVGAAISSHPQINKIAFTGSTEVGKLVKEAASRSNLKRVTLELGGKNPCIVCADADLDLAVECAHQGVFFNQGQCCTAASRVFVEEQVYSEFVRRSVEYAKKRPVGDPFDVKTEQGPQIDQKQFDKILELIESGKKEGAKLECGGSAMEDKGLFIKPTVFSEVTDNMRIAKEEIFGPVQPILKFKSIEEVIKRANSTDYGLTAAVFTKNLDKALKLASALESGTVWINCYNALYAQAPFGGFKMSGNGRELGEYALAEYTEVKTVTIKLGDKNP
The test is described as follows: ALDEFLUOR assay in cell lines of a variety of cancer types. The class given is cell-based. To be noted: ALDEFLUOR-positive cells, various cancer cell lines.
Text: Cell lines were labeled with retroviral vectors with bi-cistronic expression of GFP/firefly luciferase to facilitate imaging and flow cytometry experiments. All cell lines were verified negative for mycoplasma contamination by monthly PCR analysis. No cells lines used here appear in the database of commonly misidentified cell lines (ICLAC). All cell lines were validated with STR analysis and compared to NCBI repository data.
as §1
A notable exception is liver cancer, where it is expected that a large ALDEFLUOR™-positive population exists, and is driven by ALDH1a1.

For the compound `CCc1ccccc1C(=O)Nc1cc2c(cc1F)NC(=O)CC2` [MBE1.5, 2-ethyl-N-(7-fluoro-2-oxo-1,2,3,4-tetrahydroquinolin-6-yl)benzamide], in test [1], the “inhibition of Aldh1a3 activity (FIG. 2B)” value is given as “effective at inhibiting Aldh1a3 activity”.

As for `CCc1cnccc1C(=O)Nc1cc2c(cc1F)NC(=O)CC2` [MBE1, 3-ethyl-N-(7-fluoro-2-oxo-1,2,3,4-tetrahydroquinolin-6-yl)isonicotinamide], the “inhibition of ALDH1a3 activity in a variety of cancer types (FIG. 3A)” value in test [2] is “inhibited by MBE1 in many cancer types”.
